Source: the supplement of paper PMC10307832

The cell lines below were run with CC1=CC(=CC=C1)NC2=NC(=CS2)C3=CC=NC=C3 + CC(=O)c1c(C)c2cnc(Nc3ccc(N4CCNCC4)cn3)nc2n(C2CCCC2)c1=O [Palbociclib] (partner 0.5 µM) (assay: relative viability (nuclei count vs DMSO), 5 days (fraction); higher = more cells survive). Details: first compound 0.08 µM.
Outline: (§1)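 Relative viability is defined as nuclei in treated wells over nuclei in vehicle wells. Duplicate plates were run and medians reported. Lung cancer cell lines in 1536-well plates were dosed by pin tool one day after seeding, with one drug or with a fixed anchor-drug dose plus five library-drug doses (not always all listed) in √10 steps, and nuclei were counted after 5 days.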

| Cell Line | relative viability |
| --- | --- |
| NCI-H522 | 1.19 |
| NCI-H838 | 0.22 |
| NCI-H1651 | 0.492 |
| NCI-H1734 | 0.352 |
| NCI-H2009 | 0.251 |
| LU99A | 0.387 |
| PC-14 | 0.502 |
| LCLC-103H | 0.402 |
| NCI-H2228 | 0.655 |
| EMC-BAC-2 | 0.495 |
| NCI-H2087 | 0.186 |
| HCC-366 | 0.372 |
| NCI-H647 | 0.379 |
| NCI-H2126 | 0.336 |
| NCI-H2342 | 0.455 |
| NCI-H1793 | 0.269 |
| H3255 | 0.358 |
| COR-L23 | 0.256 |
| COR-L 105 | 0.353 |
| LOU-NH91 | 0.571 |
| ChaGo-K-1 | 0.9 |
| NCI-H358 | 0.132 |
| NCI-H3122 | 0.185 |
| HOP-62 | 0.454 |
| HCC-44 | 0.912 |
| SW 900 | 0.508 |
| LXF-289 | 0.57 |
| BEN | 0.457 |
| HARA | 0.238 |
| NCI-H1648 | 0.242 |

Same assay, conditions: first compound 0.253 µM

| Cell Line | relative viability |
| --- | --- |
| NCI-H522 | 0.797 |
| NCI-H838 | 0.205 |
| NCI-H1651 | 0.486 |
| NCI-H1734 | 0.315 |
| NCI-H2009 | 0.309 |
| LU99A | 0.384 |
| PC-14 | 0.484 |
| LCLC-103H | 0.445 |
| NCI-H2228 | 0.797 |
| EMC-BAC-2 | 0.496 |
| NCI-H2087 | 0.245 |
| HCC-366 | 0.343 |
| NCI-H647 | 0.262 |
| LK-2 | 0.764 |
| NCI-H2126 | 0.38 |
| NCI-H2342 | 0.491 |

| Cell Line | relative viability |
| --- | --- |
| NCI-H1793 | 0.305 |
| H3255 | 0.332 |
| COR-L23 | 0.251 |
| COR-L 105 | 0.45 |
| LOU-NH91 | 0.572 |
| ChaGo-K-1 | 0.961 |
| NCI-H358 | 0.15 |
| NCI-H3122 | 0.193 |
| HOP-62 | 0.446 |
| HCC-44 | 0.779 |
| SW 900 | 0.464 |
| LXF-289 | 0.642 |
| BEN | 0.521 |
| HARA | 0.237 |
| NCI-H1648 | 0.263 |

Same assay, conditions: first compound 0.8 µM

| Cell Line | relative viability |
| --- | --- |
| NCI-H522 | 0.92 |
| NCI-H838 | 0.207 |
| NCI-H1651 | 0.507 |
| NCI-H1734 | 0.344 |
| NCI-H2009 | 0.28 |
| LU99A | 0.42 |
| PC-14 | 0.553 |
| LCLC-103H | 0.477 |
| NCI-H2228 | 0.74 |
| EMC-BAC-2 | 0.526 |
| NCI-H2087 | 0.227 |
| HCC-366 | 0.274 |
| NCI-H647 | 0.369 |
| LK-2 | 0.675 |
| NCI-H2126 | 0.346 |
| NCI-H2342 | 0.557 |

| Cell Line | relative viability |
| --- | --- |
| NCI-H1793 | 0.297 |
| H3255 | 0.363 |
| COR-L23 | 0.232 |
| COR-L 105 | 0.391 |
| LOU-NH91 | 0.547 |
| ChaGo-K-1 | 0.946 |
| NCI-H358 | 0.151 |
| NCI-H3122 | 0.384 |
| HOP-62 | 0.497 |
| HCC-44 | 0.851 |
| SW 900 | 0.49 |
| LXF-289 | 0.57 |
| BEN | 0.424 |
| HARA | 0.196 |
| NCI-H1648 | 0.281 |

Same assay, conditions: first compound 2.53 µM

| Cell Line | relative viability |
| --- | --- |
| NCI-H522 | 0.954 |
| NCI-H838 | 0.217 |
| NCI-H1651 | 0.523 |
| NCI-H1734 | 0.347 |
| NCI-H2009 | 0.279 |
| LU99A | 0.39 |
| PC-14 | 0.515 |
| LCLC-103H | 0.406 |
| NCI-H2228 | 0.749 |
| EMC-BAC-2 | 0.504 |
| NCI-H2087 | 0.238 |
| HCC-366 | 0.275 |
| NCI-H647 | 0.442 |
| LK-2 | 0.699 |
| NCI-H2126 | 0.321 |
| NCI-H2342 | 0.503 |

| Cell Line | relative viability |
| --- | --- |
| NCI-H1793 | 0.261 |
| H3255 | 0.306 |
| COR-L23 | 0.279 |
| COR-L 105 | 0.421 |
| LOU-NH91 | 0.54 |
| ChaGo-K-1 | 0.943 |
| NCI-H358 | 0.144 |
| NCI-H3122 | 0.253 |
| HOP-62 | 0.447 |
| HCC-44 | 0.874 |
| SW 900 | 0.477 |
| LXF-289 | 0.645 |
| BEN | 0.489 |
| HARA | 0.222 |
| NCI-H1648 | 0.295 |

Same assay, conditions: first compound 8 µM

| Cell Line | relative viability |
| --- | --- |
| NCI-H522 | 0.947 |
| NCI-H838 | 0.179 |
| NCI-H1651 | 0.543 |
| NCI-H1734 | 0.359 |
| NCI-H2009 | 0.23 |
| LU99A | 0.468 |
| PC-14 | 0.394 |
| LCLC-103H | 0.507 |
| NCI-H2228 | 0.615 |
| EMC-BAC-2 | 0.454 |
| NCI-H2087 | 0.221 |
| HCC-366 | 0.257 |
| NCI-H647 | 0.365 |
| LK-2 | 1.06 |
| NCI-H2126 | 0.339 |
| NCI-H2342 | 0.497 |

| Cell Line | relative viability |
| --- | --- |
| NCI-H1793 | 0.336 |
| H3255 | 0.318 |
| COR-L23 | 0.303 |
| COR-L 105 | 0.33 |
| LOU-NH91 | 0.545 |
| ChaGo-K-1 | 0.859 |
| NCI-H358 | 0.129 |
| NCI-H3122 | 0.193 |
| HOP-62 | 0.571 |
| HCC-44 | 0.805 |
| SW 900 | 0.46 |
| LXF-289 | 0.553 |
| BEN | 0.482 |
| HARA | 0.324 |
| NCI-H1648 | 0.302 |

The cell lines below were run with Cc1ccc(NC(=O)c2ccc(CN3CCN(C)CC3)cc2)cc1Nc1nc(-c2cccnc2)cs1 [Masitinib] + N=C(N)NC(=N)NCCc1ccccc1 [Phenformin] (partner 250 µM) in the same assay as above. Details: first compound 0.01 µM.
Outline: as §1

| Cell Line | relative viability |
| --- | --- |
| NCI-H522 | 0.653 |
| NCI-H1623 | 0.509 |
| NCI-H838 | 0.45 |
| NCI-H1651 | 0.341 |
| NCI-H1734 | 0.423 |
| NCI-H2009 | 0.434 |
| LU99A | 0.868 |
| PC-14 | 0.458 |
| LCLC-103H | 0.339 |
